From patent US20260283925A1, “NOVEL PEPTIDE HAVING ACTIVITY OF RETARDING DEGRADATION OF HYALURONIC ACID AND USES THEREOF” (CAREGEN CO., LTD., priority 2023, published 2026)

Experiments:
[1] = test system: NIH3T3 cells (mouse fibroblast); test: Promotion of collagen and hyaluronic acid (HA) expression, ELISA of culture supernatant; format: cell-based; settings: 50 μM to 200 μM, 72 hours, FIG. 2
Description: (§1) NIH3T3 cells (mouse fibroblast) and HaCaT cells (human keratinocyte cell line) were seeded at a density of 1×10^4 cells/well in a 24-well plate and cultured for 24 hours. The cells were washed once with serum-free DMEM medium. Different amounts of peptides were added to 500 μL of serum-free DMEM medium to prepare peptide medium solutions having concentrations of 50 μM, 100 μM, and 200 μM, and the washed cells were treated with the prepared peptide medium solutions. As a positive control, 100 nM […] was used in NIH3T3 cells and 100 nM IGF-1 was used in HaCaT cells. The treated cells were then cultured in a CO2 incubator at 37° C. for 72 hours. The cell culture liquid was collected, centrifuged, and the supernatant was transferred to a tube. The obtained supernatant was subjected to ELISA analysis using the Collagen ELISA kit (Abcam, Cat No.: ab210579, UK) and HA ELISA kit (ECHELON Biosciences, Cat No.: K-1200, USA), respectively.

[2] = test system: HaCaT cells (human keratinocyte cell line); test: as above; format: cell-based; settings: 50 μM to 200 μM, 72 hours, FIG. 2
Description: as §1

hyaluronidase (HAdase) = test: Delay of hyaluronic acid degradation by hyaluronidase in BDDE-cross-linked hyaluronic acid filler (Congo Red diffusion, absorbance 500 nm); format: biochemical; settings: 24 hours after treatment with hyaluronidase, 37° C., FIG. 4
Description: A 1,4-Butanediol diglycidyl ether (BDDE)-cross-linked hyaluronic acid filler with or without the peptide of Preparation Example 1 was prepared, and Congo Red and hyaluronidase (HAdase) were prepared as absorbing dyes. 20 μL of 1 mM Congo Red was added to a 1.5 mL eppendorf tube, and 100 μL each of the peptide-free filler (control filler) and the peptide-containing filler were added on the absorbing dye. Each was treated with 350 μL of 0.15 mg/mL (108 units) of hyaluronidase. Each tube was placed in an incubator at 37° C., and 100 μL of the sample supernatant was collected at time points of 6 and 24 hours and transferred to a 96-well. The absorbance was measured at 500 nm using a microplate reader (SpectraMax iD3, Molecular Devices, USA). As above, BDDE-cross-linked hyaluronic acid filler samples with or without the peptide were prepared, and the degree of degradation of the hyaluronic acid filler by hyaluronidase was compared depending on the presence or absence of the peptide. The degree of degradation of the hyaluronic acid filler was measured by the change in absorbance according to the diffusion of the dye. That is, the principle, in which the flowability of the sample increases when hyaluronic acid is degraded by the degradation enzyme, thereby increasing the diffusion of the dye, was utilized.

[3] = test system: NIH3T3 cells (mouse fibroblast); test: Cell proliferation analysis (MTT); format: cell-based; settings: peptide 1.6-1000 μM, 72 hours, FIG. 1
Description: (§2) NIH3T3 cells (mouse fibroblast) and HaCaT cells (human keratinocyte cell line) were seeded at a density of 1×10^4 cells/well in a 96-well plate and cultured for 24 hours. The cells were washed once with serum-free DMEM medium. Different amounts of peptides were added to 200 μL of serum-free DMEM medium to prepare peptide medium solutions having concentrations of 1.6 μM, 8 μM, 40 μM, 200 μM, and 1000 μM, and the prepared peptide medium solutions were treated to the washed cells. Then, the treated cells were cultured in a CO2 incubator at 37° C. for 72 hours, washed twice with PBS, and MTT (Sigma, Cat. No.: M2003, USA) solution was dispensed into each well to a final concentration of 0.5 mg/mL. Then, after blocking light, the cells were cultured in a CO2 incubator at 37° C. for 4 hours. The absorbance was measured at 540 nm using a microplate reader (SpectraMax iD3, Molecular devices, USA).

[4] = test system: HaCaT cells (human keratinocyte cell line); test: Cell proliferation analysis (MTT); format: cell-based; settings: peptide 1.6-1000 μM, 72 hours, FIG. 1
Description: as §2

[5] = pH stability of peptide (HPLC area); format: physicochemical; settings: 1000 ppm solution titrated to pH 4, pH 7, pH 10, HPLC area relative to pH 7, FIG. 7b
Description: The evaluation of pH stability was performed as follows. A diluted solution of the peptide of Preparation Example 1 at a concentration of 1000 ppm was prepared, and the initial pH value of the solution was measured (pH=3.21). 0.5 M NaOH was added so as to titrate the pH of the solution to pH 4, pH 7, and pH 10, respectively. Each sample was filtered through a 0.22 μm filter. The area values were compared based on pH 7 measured by HPLC.

[6] = Delay of hyaluronic acid degradation by reactive oxygen species in hyaluronic acid solution (viscosity, rheometer); settings: 1.5 wt % hyaluronic acid in PBS, peptide 100, 1000, 5000 ppm, 500 mM H2O2, 60 and 180 minutes, FIG. 5
Description: Hyaluronic acid was dissolved in PBS to a concentration of 1.5 wt % and hydrated, and 10 g of this solution was dispensed into each conical tube. Peptide solutions were added to the dispensed hyaluronic acid solutions so that the final peptide concentrations were 0 ppm (no addition), 100 ppm, 1000 ppm, and 5000 ppm, respectively. 2 mL of 500 mM hydrogen peroxide (H2O2) was added to each. Viscosity was measured using a rheometer (single shear stress) by sampling at 0, 30, 60, and 180 minutes to compare the viscosity values according to the peptide concentration. As above, 1.5 wt % hyaluronic acid solutions containing peptides at each concentration were treated with hydrogen peroxide to maintain the degradation reaction by reactive oxygen species for 60 and 180 minutes, thereby degrading hyaluronic acid. After the degradation reaction, the viscosity of each hyaluronic acid solution was measured to confirm the degradation delaying efficacy.

[7] = Thermal stability of peptide (HPLC area); format: physicochemical; settings: 1000 ppm solution, 25° C. and 50° C., 72 hours, FIG. 7a
Description: The evaluation of thermal stability was performed as follows. A diluted solution of the peptide of Preparation Example 1 at a concentration of 1000 ppm was prepared, dispensed into 50 mL conical tubes, and placed in an incubator at 25° C. and 50° C. After 72 hours, 1 mL of each sample was filtered through a 0.22 μm filter. The area values were compared at 25° C. based on pH 7 measured by HPLC.

[8] = test system: hyaluronidase from bovine testes; test: Delay of hyaluronic acid degradation by hyaluronidase in hyaluronic acid solution (viscosity, rheometer); format: biochemical; settings: 1.5 wt % hyaluronic acid in PBS
Description: Hyaluronic acid was dissolved in PBS to a concentration of 1.5 wt % and hydrated, and 10 g of this solution was dispensed into each conical tube. Peptide solutions were added to the dispensed hyaluronic acid solutions so that the final peptide concentrations were 0 ppm (no addition), 100 ppm, 1000 ppm, and 5000 ppm, respectively. 2 mL of hyaluronic acid degrading enzyme (hyaluronidase from bovine testes, Hadase, Sigma) was added to each conical tube. Viscosity was measured using a rheometer (single shear stress) by sampling at 0 and 30 minutes to compare the viscosity values according to the peptide concentration. As above, the 1.5 wt % hyaluronic acid solution containing the peptides at each concentration was treated with hyaluronidase, and the enzymatic reaction was maintained for 30 minutes to decompose hyaluronic acid. After the degradation reaction, the viscosity of the hyaluronic acid solution was measured to confirm the degradation delay efficacy.

[9] = Delay of hyaluronic acid degradation by reactive oxygen species in BDDE-cross-linked hyaluronic acid filler (Congo Red diffusion, absorbance 500 nm); settings: 37° C., FIG. 6
Description: A 1,4-Butanediol diglycidyl ether (BDDE)-cross-linked hyaluronic acid filler with or without the peptide of Preparation Example 1 was prepared, and Congo Red and hyaluronidase (HAdase) as absorbing dyes were prepared. 20 μL of 1 mM Congo Red was added to each 1.5 mL eppendorf tube, and 100 μL each of the peptide-free filler (control filler) and the peptide-containing filler were added on the absorbing dye. Each was treated with 350 μL of 500 mM hydrogen peroxide (H2O2). Each tube was placed in an incubator at 37° C., and 100 μL of the sample supernatant was collected at time points of 1 hour, 3 hours, 6 hours, 24 hours, 48 hours, and 72 hours and transferred to 96-wells. The absorbance was measured at 500 nm using a microplate reader (SpectraMax iD3, Molecular devices, USA). As above, BDDE-cross-linked hyaluronic acid filler samples with or without the peptide were prepared, and the degree of degradation of hyaluronic acid filler by reactive oxygen species was compared depending on the presence or absence of peptide. The degree of degradation of hyaluronic acid filler was measured by the change in absorbance due to the diffusion of dye. That is, the principle that the flowability of the sample increases when hyaluronic acid is degraded by reactive oxygen species and thus the diffusion of the dye increases was utilized.

improvement of delay of degradation versus peptide-free filler (hyaluronidase (HAdase)): ≥ 15% | difference in the degradation delay efficacy of 1000 ppm and 5000 ppm ([8]; hyaluronidase 30 minutes): not significant | improvement of degradation delay versus peptide-free filler ([9]; 24 hours after treatment with 500 mM hydrogen peroxide): ≥ 50% | effect of delaying degradation ([9]; treated 48 hours with 500 mM hydrogen peroxide, filler without peptides mostly degraded): 85%
Sequence: KIWNLEPSRNGT (H2N-Lys-Ile-Trp-Asn-Leu-Glu-Pro-Ser-Arg-Asn-Gly-Thr-COOH) [peptide having SEQ ID NO: 1]
collagen expression ([1]; Collagen ELISA): significant increase in collagen expression | hyaluronic acid (HA) expression ([1]; HA ELISA): increase in hyaluronic acid (HA) expression | collagen expression ([2]; Collagen ELISA): significant increase in collagen expression | hyaluronic acid (HA) expression ([2]; HA ELISA): increase in hyaluronic acid (HA) expression | effect of promoting cell proliferation [3]: significant effect of promoting cell proliferation | effect of promoting cell proliferation [4]: significant effect of promoting cell proliferation | pH stability [5]: stable even at a high temperature of 50 °C and in the range of pH 4 to pH 10 | degradation delaying efficacy (viscosity of hyaluronic acid solution after hydrogen peroxide) [6]: degradation of hyaluronic acid was delayed as the concentration of peptide increased | thermal stability [7]: stable even at a high temperature of 50 °C | degradation delay efficacy (viscosity of hyaluronic acid solution after hyaluronidase) ([8]; peptide 100, 1000, 5000 ppm, 30 minutes, FIG. 3): degradation of hyaluronic acid was delayed as the concentration of the peptide increased
